Experiments:
Assay in all cases: relative viability (nuclei count vs DMSO), 5 days (fraction); higher = more cells survive
MK-2206 + Olaparib = compound: NC1(c2ccc(-c3nc4ccn5c(=O)[nH]nc5c4cc3-c3ccccc3)cc2)CCC1 [MK-2206] + O=C(c1cc(Cc2n[nH]c(=O)c3ccccc23)ccc1F)N1CCN(C(=O)C2CC2)CC1 [Olaparib] (partner 8 µM)
Outline: (§1)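 Lung cancer cell lines, seeded in 1536-well plates, were treated the following day by pin tool with a single drug or with five library-drug doses (not always all listed) in √10 steps on top of a fixed anchor-drug dose. Cells were fixed and nuclei stained in one step after 5 days, and nuclei were counted. Relative viability is the nuclei count for treated wells divided by that for vehicle wells, reported as medians of duplicate plates.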

MK-2206 + Alpelisib = compound: NC1(c2ccc(-c3nc4ccn5c(=O)[nH]nc5c4cc3-c3ccccc3)cc2)CCC1 [MK-2206] + Cc1nc(NC(=O)N2CCC[C@H]2C(N)=O)sc1-c1ccnc(C(C)(C)C(F)(F)F)c1 [Alpelisib] (partner 2 µM)
Outline: as §1

MK-2206 + Palbociclib = compound: NC1(c2ccc(-c3nc4ccn5c(=O)[nH]nc5c4cc3-c3ccccc3)cc2)CCC1 [MK-2206] + CC(=O)c1c(C)c2cnc(Nc3ccc(N4CCNCC4)cn3)nc2n(C2CCCC2)c1=O [Palbociclib] (partner 0.5 µM)
Outline: as §1

Pictilisib + Foretinib = compound: CS(=O)(=O)N1CCN(Cc2cc3nc(-c4cccc5[nH]ncc45)nc(N4CCOCC4)c3s2)CC1 [Pictilisib] + COc1cc2c(Oc3ccc(NC(=O)C4(C(=O)Nc5ccc(F)cc5)CC4)cc3F)ccnc2cc1OCCCN1CCOCC1 [Foretinib] (partner 0.25 µM)
Outline: as §1

MK-2206 + Bortezomib = compound: NC1(c2ccc(-c3nc4ccn5c(=O)[nH]nc5c4cc3-c3ccccc3)cc2)CCC1 [MK-2206] + CC(C)C[C@H](NC(=O)[C@H](Cc1ccccc1)NC(=O)c1cnccn1)B(O)O [Bortezomib] (partner 0.002 µM)
Outline: as §1

| Cell Line | relative viability (MK-2206 + Olaparib; first compound 0.01 µM) | relative viability (MK-2206 + Olaparib; first compound 0.03162 µM) | relative viability (MK-2206 + Olaparib; first compound 0.3162 µM) | relative viability (MK-2206 + Olaparib; first compound 1 µM) | relative viability (MK-2206 + Alpelisib; first compound 0.01 µM) | relative viability (MK-2206 + Alpelisib; first compound 0.03162 µM) | relative viability (MK-2206 + Alpelisib; first compound 0.3162 µM) | relative viability (MK-2206 + Alpelisib; first compound 1 µM) | relative viability (MK-2206 + Palbociclib; first compound 0.01 µM) | relative viability (MK-2206 + Palbociclib; first compound 0.03162 µM) | relative viability (MK-2206 + Palbociclib; first compound 0.3162 µM) | relative viability (MK-2206 + Palbociclib; first compound 1 µM) | relative viability (Pictilisib + Foretinib; first compound 0.02 µM) | relative viability (Pictilisib + Foretinib; first compound 0.06325 µM) | relative viability (Pictilisib + Foretinib; first compound 0.6325 µM) | relative viability (Pictilisib + Foretinib; first compound 2 µM) | relative viability (MK-2206 + Bortezomib; first compound 0.01 µM) | relative viability (MK-2206 + Bortezomib; first compound 0.03162 µM) | relative viability (MK-2206 + Bortezomib; first compound 0.3162 µM) | relative viability (MK-2206 + Bortezomib; first compound 1 µM) |
| --- | --- | --- | --- | --- | --- | --- | --- | --- | --- | --- | --- | --- | --- | --- | --- | --- | --- | --- | --- | --- |
| NCI-H441 | 0.588 | 0.622 | 0.541 | 0.338 | 0.697 | 0.742 | 0.453 | 0.661 | 0.226 | 0.206 | 0.207 | 0.167 | 0.929 | 0.749 | 0.745 | 0.539 | 0.841 | 0.575 | 0.223 | 0.233 |
| NCI-H520 | 0.359 | 0.331 | 0.228 | 0.195 | 0.939 | 0.819 | 0.561 | 0.355 | 0.215 | 0.218 | 0.153 | 0.149 | 0.695 | 0.694 | 0.4 | 0.244 | 0.485 | 0.675 | 0.431 | 0.242 |
| CAL-12T | 0.81 | 0.666 | 0.703 | 0.714 | 1.04 | 1.03 | 1.05 | 0.895 | 0.383 | 0.277 | 0.543 | 0.411 | 1.09 | 1.14 | 1.08 | 0.918 | 0.971 | 0.928 | 0.947 | 0.963 |
| HCC-827 | 0.671 | 0.678 | 0.506 | 0.523 | 1.07 | 1.05 | 0.821 | 0.816 | 0.568 | 0.542 | 0.292 | 0.344 | 0.996 | 1.04 | 0.931 | 0.392 | 0.98 | 1.06 | 1.09 | 1.03 |
| LC-2-ad | 0.662 | 0.73 | 0.767 | 0.795 | 0.888 | 0.847 | 0.802 | 0.793 | 0.488 | 0.523 | 0.51 | 0.499 | 0.959 | 0.948 | 0.662 | 0.491 | 0.971 | 1.09 | 1.01 | 0.91 |
| NCI-H2170 | 0.617 | 0.585 | 0.597 | 0.558 | 0.82 | 0.835 | 0.755 | 0.776 | 0.4 | 0.391 | 0.354 | 0.343 | 1 | 0.983 | 0.827 | 0.772 |  |  |  |  |
| SW 1573 | 0.5 | 0.466 | 0.396 | 0.393 | 0.763 | 0.817 | 0.607 | 0.613 | 0.571 | 0.335 | 0.294 | 0.298 | 0.865 | 0.805 | 0.706 | 0.501 | 0.948 | 1.04 | 0.834 | 0.629 |
| SK-MES-1 | 0.635 | 0.727 | 0.692 | 0.482 | 0.882 | 1.05 | 0.786 | 0.851 | 0.327 | 0.296 | 0.289 | 0.256 | 1.02 | 0.86 | 0.494 | 0.271 |  |  |  |  |
| NCI-H1648 | 1.01 | 1.11 | 0.966 | 0.769 |  |  |  |  | 0.229 | 0.269 | 0.301 | 0.331 |  |  |  |  |  |  |  |  |
| NCI-H1793 | 0.87 | 1.02 | 0.791 | 0.766 | 0.721 | 0.816 | 0.634 | 0.727 | 0.277 | 0.329 | 0.272 | 0.252 | 0.563 | 0.448 | 0.415 | 0.21 |  |  |  |  |
| NCI-H1299 | 0.967 | 1.04 | 1.05 | 1.02 | 1.03 | 1.05 | 1.03 | 1.03 |  |  |  |  | 1.06 | 1.19 | 1.22 | 1.06 | 1.04 | 1.02 | 1.09 | 1 |
| LCLC-97TM1 | 0.381 | 0.351 | 0.273 | 0.234 | 0.316 | 0.261 | 0.185 | 0.204 | 0.264 | 0.233 | 0.191 | 0.198 | 0.991 | 0.972 | 0.714 | 0.239 | 0.415 | 0.593 | 0.39 | 0.44 |
| NCI-H1915 | 0.238 | 0.246 | 0.257 | 0.254 | 1.05 | 1.1 | 1.04 | 1.08 | 0.594 | 0.612 | 0.499 | 0.505 | 1.07 | 1.12 | 1.1 | 1.02 | 0.969 | 1.02 | 0.983 | 0.862 |
| NCI-H661 | 0.768 | 0.751 | 0.763 | 0.738 | 0.745 | 1.07 | 0.688 | 0.473 | 0.428 | 0.42 | 0.354 | 0.349 | 1.01 | 1.06 | 1.05 | 0.645 | 0.857 | 0.864 | 0.862 | 0.989 |
| NCI-H2405 | 0.837 | 0.899 | 0.875 | 0.825 | 0.762 | 0.877 | 0.728 | 0.673 | 0.512 | 0.534 | 0.532 | 0.481 | 1.01 | 0.965 | 0.847 | 0.562 | 0.96 | 1.1 | 0.958 | 0.987 |
| NCI-H2347 | 0.618 | 0.541 | 0.58 | 0.503 | 0.967 | 1.11 | 1.11 | 0.973 | 0.418 | 0.415 | 0.39 | 0.3 | 0.843 | 0.937 | 1.19 | 0.438 | 0.914 | 1.11 | 1.06 | 0.92 |
| NCI-H1651 | 0.178 | 0.154 | 0.174 | 0.181 | 0.921 | 0.906 | 0.938 | 0.898 | 0.506 | 0.536 | 0.486 | 0.482 | 0.764 | 0.609 | 0.678 | 0.572 | 0.881 | 0.903 | 1.02 | 0.947 |
